Test system: B16/F10 melanoma
Experiment: B16/F10 melanoma tumor growth
Assay type: in vivo, mice
Details: 45 mg/kg on day 0, day 4 and day 8
Source text: FIG. 6. Effect of BLN101 on tumor growth inhibition. […] To validate the therapeutic efficacy of AK750, we randomly sorted mice bearing B16/F10 melanoma into three groups and treated each group with one of the following: blank vehicle (control); AK750; and BLZ945. The mice injected with vehicle formed large tumors by Day 10 (the day of first injection being Day 0), and consequently were killed. The animals in the other groups were also killed at the same time point to evaluate the effect of the treatments on tumor pathology. […] Changes in body weight were within the acceptable limits.
Activity Studies of Compound of Formula I • Efficacy of BLN101 vs BLZ945 on the ability to inhibit CSF1R in vitro is studied. RAW264.7 cells are treated with BLZ945 (67 nM) or BLN101 (67 nM) for different time points, at the end of which the cells were exposed to CSF1 (10 ng/ml) for 20 min. The cells were then lysed and analyzed for phosphorylated CSF1R levels. […] Efficacy of BLN101 (in formulation AK750) vs BLZ945 on increase in iNOS expression in vitro is studied. It is observed that exposure to Tumor Conditioned Media over 24 h decreases INOS levels. […] At different time-points, the cells are harvested and analyzed the population for M1 (MHCII+, CD86+, CD80+) or M2 (CD206+) markers using fluorescence activated cell sorting (FIG. 5d). […]

## CNC(=O)c1cc(Oc2ccc3nc(N[C@@H]4CCCC[C@H]4O)sc3c2)ccn1 [BLZ-945]
  tumor growth: decreased tumor growth compared with vehicle-treated animals

— patent US10736968B2, “Cellular signalling inhibitors, their formulations and methods thereof” (INVICTUS ONCOLOGY PVT. LTD., priority 2016, dated 2020)
